Measurements reported in US20220323583A1, “Pharmaceutical Formulations of Bi-Specific Diabodies and Use of the Same” (MacroGenics, Inc., priority 2019, published 2022).
Values belong to the compound of their own block, whether it stands above or below them.

Columns and labels:
[1] = Stabilizer solution optimizing studies (turbidity, miscibility, pH, MP in solution); format: physicochemical
Procedure: Since the BA concentration in the stabilizer solution is limited due to patient safety concerns, to increase the preservative effectiveness duration, the MP concentration in the stabilizer solution could be increased to 0.1%. However, when the concentrated stabilizer solution is presented as a 20 mL additive volume, this level of MP leads to high solution pH (≥9.0), solution turbidity, and PS80 immiscibility. To address these issues, a series of stabilizer solution optimizing studies were performed to determine the final concentrated stabilizer solution.
The first study explored lower levels of PS80 in the concentrated stabilizer solution to determine if the turbidity and solution instability or immiscibility issues can be addressed. […] However, this concentration of PS80 remains turbid at room temperature. A subsequent study evaluating larger concentrated stabilizer solution additive volume presentations was performed to determine if lowering the levels of all excipients in the concentrated stabilizer solution helps address the high turbidity issue. […] To determine optimal concentrated stabilizer solution pH, studies varying the formulation buffer strength were performed. […] As a result, variable concentrations of MP were evaluated in a subsequent study. […] Based on the results of the previous PS80 and MP studies, a final study was performed evaluating variable concentrations of MP and PS80 to determine the optimal combination that addresses solution turbidity at an acceptable pH. […] When 40 mL of this stabilizer solution is diluted in a 250 mL saline bag, the resulting dosing solution will contain 0.17% BA and 0.055% MP. […] As a result, the preservative effectiveness of the re-formulated Stabilizer 2 solution having final preservative levels of 0.17% BA and 0.05% MP in the dosing solution, was examined through microbial challenge testing of USP recommended microbes.
However, BA levels above 15.5 mg/mL result in solution instability or immiscibility and MP levels above 5.3 mg/mL produce a final solution above pH 8.4. […]

[2] = target: T1, soluble recombinant human IL-3 receptor alpha (rhIL3Rα) (Homo sapiens, UniProt P26951); test: ELISA (rhIL3Rα) DART-A quantitation assay (concentration, protein recovery); settings: 0.05 mg/mL PS80 or 0.1 mg/mL PS80
T1 construct: soluble recombinant human IL-3 receptor alpha (rhIL3Rα)
T1 sequence (P26951 19-305 limits assumed): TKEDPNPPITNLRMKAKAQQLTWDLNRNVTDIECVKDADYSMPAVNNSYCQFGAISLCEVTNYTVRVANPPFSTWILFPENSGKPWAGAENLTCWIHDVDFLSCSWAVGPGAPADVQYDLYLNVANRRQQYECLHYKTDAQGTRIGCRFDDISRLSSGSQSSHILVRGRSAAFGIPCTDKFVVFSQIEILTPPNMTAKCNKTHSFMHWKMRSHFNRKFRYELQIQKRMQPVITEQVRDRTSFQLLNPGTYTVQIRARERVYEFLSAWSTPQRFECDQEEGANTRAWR
Procedure: In brief, the assay plate was coated with soluble recombinant human IL-3 receptor alpha (rhIL3Rα) overnight. […] After addition of MSD Read Buffer, the plate was inserted into the Sector Imager 2400 Plate Reader. When a voltage was applied to the plate electrodes, the bound Sulfo-TAG label produces an ECL signal, which was captured by the plate reader. A quantitative measure of the ECL signal emitted by each well was recorded, and the ECL counts emitted by the standard calibrators were used to generate a standard curve using a 4-parameter logistic (4PL) fit.

USP recommended microbes = test: Microbial challenge testing, statements on several microbes together; format: cell-based
Procedure: Microbial challenge testing was performed to evaluate the preservative effect of stabilizer solutions containing ≤0.17% BA and ≤0.1% MP. Microbial challenge testing was chosen as it more accurately represents the proposed dose preparation and dilution scheme where doses will be prepared aseptically and the number of microbes that may be introduced to the solution would be low. Microbial challenge testing was performed in two stages. The first stage determined the effective concentrations of BA and MP while the second stage tested the final formulation according to USP specifications. Each stage is described in detail below.
To confirm the anti-microbial properties of Stabilizer 2 once diluted in saline (i.e., in the dosing solution), microbial growth testing was performed by SGS Life Sciences. The USP recommended microbes required for testing are listed below in Table 26.
A high dosing solution (150 kg patient at 1,000 ng/kg cohort) was prepared to represent the maximum preservative dilution. […] Microbial growth studies were performed on all five USP recommended microbes with a target concentration between 10 and 100 CFU/mL. The microbial growth results are listed below in Table 27.
Microbial Challenge Testing was performed to evaluate the preservative effect of stabilizer solutions. In short, high concentration (1250 ng/mL) dosing solution was prepared according Table 36. USP<51> recommended microbes were introduced to the solution with a target concertation between 10 and 100 CFU/mL. Solutions were stored at the USP<51> recommended temperature for each microbe and at predetermined time points, samples were collected. Testing of samples was performed according to USP<1227>. The threshold for no microbial growth was established to be not greater than 0.5 log colony count compared to the initial concentration of microbe.

[3] = RP-HPLC for BA and MP recovery (preservative concentration); format: physicochemical; settings: for Tested Benzyl Alcohol Concentration: Study 2, diluted DART-A DP formulation in cassette 25° C., 100 rpm, 5000 ng/mL, expected 0.86%
Procedure: Preservative recovery was measured using Reverse Phase (RP) HPLC analysis. The RP-HPLC configuration included a photodiode array (PDA) detector (λBA=254 nm, λMP=340 nm), a mobile phase composition of 40% acetonitrile, 0.1% formic acid and a Zorbax® 5 μm Eclipse-XDB-C18 80 Å liquid chromatography column. Samples were diluted ten-fold. The column temperature was set to 40±5° C. 50 μL of solution was injected for each 10-minute run.

- share of the target MP concentration that stays in solution ([1]; concentrated stabilizer solution, pH≤8.0): 30-50%
- MP level that produces a final solution above pH 8.4 ([1]; stabilizer solution): above 5.3 mg/mL
Compound: COC(=O)c1ccc(O)cc1 [MP, methylparaben]

- blocking activity (inhibition of DART-A adsorption) [2]: sufficient blocking activity
Compound: polysorbate 80 [PS80]

- BA content ([3]; Study 2, 25° C., 100 rpm shaking for up to 72 hours): at least 0.75%
- Tested Benzyl Alcohol Concentration ([3]; T = 0): 0.91%
- Tested Benzyl Alcohol Concentration ([3]; T = 24 hours): 0.78%
- Tested Benzyl Alcohol Concentration ([3]; T = 48 hours): 0.76%
- Tested Benzyl Alcohol Concentration ([3]; T = 72 hours): 0.78%
- BA level that results in solution instability or immiscibility ([1]; stabilizer solution): above 15.5 mg/mL
Compound: OCc1ccccc1 [Benzyl Alcohol, benzyl alcohol]
- antimicrobial property (USP recommended microbes; BA 0.17% alone (single pump target concentration)): does not inhibit growth
- antimicrobial property (USP recommended microbes; BA 0.9% (concentration in Stabilizer 1), P. aeruginosa and C. albicans): both bactericidal and fungicidal
- BA concentration that provided sufficient anti-microbial activity (USP recommended microbes; previous study): 0.61%
